Patent EP0107907A2, “Improvements in or relating to immunomodulating agents” (ELI LILLY AND COMPANY, priority 1982, dated 1984)
Marks after values point to notes of the source that are not given here.

Columns and labels:
Solubility = type: physicochemical
From the text: A53868 factor A is soluble in water and dimethyl sulfoxide and is insoluble in most organic solvents.
Soluhility: soluble in water and dimethyl sulfoxide; insoluble in most organic solvents

Candida albicans A26 = test: Protection of mice by pretreatment against lethal Candida albicans infection; type: in vivo, CD1 mice
Method: (§1) In this test CD1 mice weighing 18-20 g were pretreated intraperitoneally or subcutaneously with test compound at 5, 3, and 1 days before intravenous infection with 5 x 10^6 viable cells of Candida albicans A26. Test compound was solubilized in pyrogen-free water and administered in 0.25 ml of solution. Ten mice were used for each concentration tested. Ten infected mice were treated intraperitoneally or subcutaneously at 5, 3, and 1 days preinfection with 0.25 ml of pyrogen-free water as controls. The immunomodulatory effects of the test compound were studied in X-irradiated mice exposed to 400R 24 hours preinfection, or mice treated intraperitoneally with 50 mg/kg cyclophosphamide 5, 3, and 1 days preinfection. The mice were caged, watered, and fed daily. The number of surviving mice was counted daily. Normal mice surviving 18 days post-infection were given an arbitrary 19-day survival time. X-irradiated or cyclophosphamide-treated mice surviving 12 days post-infection were given an arbitrary 13 day survival time. The average survival time was calculated for each group. Significant differences between treated and untreated groups of mice were determined by "T" test. Compound 1 was devoid of intrinsic in vitro antifungal activity against C. albicans A26 in a standard agar-diffusion test.

C. albicans A26 = test: Standard agar-diffusion test, antifungal; type: cell-based
Method: as §1

[1] = system: Listeria monocytogenes EGD; test: Protection of mice by pretreatment against lethal Listeria monocytogenes infection; type: in vivo, CD1 mice; settings: for Average Survival Time: survivors at 14 days given 15 day survival time;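 as to Percent Survivors: survivors counted daily for 14 days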
Method: In the test CD1 mice weighing 18-20 g were pretreated parenterally with the test compound 5, 3, and 1 days before intravenous infection in the lateral tail vein with 0.1 ml containing 5 x 10^5 viable cells of Listeria monocytogenes EGD. Test compound was solubilized in pyrogen-free water and administered intraperitoneally in 0.25 ml of the solution. Ten mice each were used for each concentration tested. Ten control mice were treated intraperitoneally at 5, 3, and 1-days preinfection with 0.25 ml of pyrogen-free water. The mice were caged, watered, and fed daily. […] All surviving animals at 14 days were given an arbitrary 15 day survival time. The average survival time was calculated for each group. Significant differences between the treated and control groups of mice were determined by the standard "T" test.

peritoneal macrophages = test: In vivo macrophage activation (peritoneal macrophages from treated mice, cytotoxicity against P815 cells); parameters: species or system BALB/c mice
Method: In another procedure, peritoneal macrophages were harvested after 3, 5, or 10 days from composition- treated mice by peritoneal lavage and purified by adherence on plastic. Approximately 4 x 10^5 macrophages in 16-mm wells were overlaid with 4 x 10^4 P815 cells contained in 2 ml of Roswell Park Memorial Institute.1640 Medium supplemented with 20 percent fetal calf serum. All cultures were maintained in a humidified, 5-percent COZ-in-air incubator at 37°C., and cytotoxicity was assessed at 48 hours on the basis of viable cell counts in a hemocytometer. Triplicate cultures were maintained for each group; the mean cell count and standard error (S.E.) were calculated. […] The ratio of macrophages to target cells was approximately 10:1 at the beginning of each experiment. The percentage of growth inhibition of P815 cells due to composition-mediated macrophage activation was calculated by comparison to that of P815 cells grown in the presence of macrophages from buffer- treated animals.

[2] = Cyclophosphamide-Pretreated Mice, dose 25 mg/kg
[3] = Cyclophosphamide-Pretreated Mice, dose 50 mg/kg

C=C(CP(=O)(O)O)NC(=O)[C@H](CC(C)C)NC(=O)CN [Compound 1, N^2-glycyl-N-(1-methylene-2-phosphonoethyl)leucinamide]
solubility in most organic solvents (Solubility; most organic solvents): insoluble | solubility in water and dimethyl sulfoxide (Solubility; water and dimethyl sulfoxide): soluble | Average Survival Time (Candida albicans A26; [2]): 6.8 days | Percent Increase In Average Survival Time Above Untreated Controls (Candida albicans A26; [2]): 54.5* Percent | Average Survival Time (Candida albicans A26; [3]): 6.1 days | Percent Increase In Average Survival Time Above Untreated Controls (Candida albicans A26; [3]): 38.6* Percent | Average Survival Time (Candida albicans A26; Normal Mice, dose 12.5 mg/kg): 9.1 days | Percent Increase In Average Survival Time Above Untreated Controls (Candida albicans A26; Normal Mice, dose 12.5 mg/kg): 68.0* Percent | Average Survival Time (Candida albicans A26; Normal Mice, dose 50 mg/kg): 7.1 days | Percent Increase In Average Survival Time Above Untreated Controls (Candida albicans A26; Normal Mice, dose 50 mg/kg): 31.5* Percent | protecting mice from a lethal Candida albicans A26 infection (Candida albicans A26; preinfection treatments at 5, 3, and 1 days, intraperitoneally or subcutaneously): significantly effective | intrinsic in vitro antifungal activity (C. albicans A26): devoid | Percent Survivors ([1]; pretreatment 6.25 mg/kg i.p., day 1 post infection): 100% | Percent Survivors ([1]; pretreatment 6.25 mg/kg i.p., day 2 post infection): 100% | Percent Survivors ([1]; pretreatment 6.25 mg/kg i.p., day 3 post infection): 100% | Percent Survivors ([1]; pretreatment 6.25 mg/kg i.p., day 4 post infection): 60% | Percent Survivors ([1]; pretreatment 6.25 mg/kg i.p., day 5 post infection): 50% | Percent Survivors ([1]; pretreatment 6.25 mg/kg i.p., day 6 post infection): 40% | Percent Survivors ([1]; pretreatment 6.25 mg/kg i.p., day 7 post infection): 30% | Percent Survivors ([1]; pretreatment 6.25 mg/kg i.p., day 8 post infection): 30% | Percent Survivors ([1]; pretreatment 6.25 mg/kg i.p., day 9 post infection): 30% | Percent Survivors ([1]; pretreatment 6.25 mg/kg i.p., day 10 post infection): 30% | Percent Survivors ([1]; pretreatment 6.25 mg/kg i.p., day 11 post infection): 30% | Percent Survivors ([1]; pretreatment 6.25 mg/kg i.p., day 12 post infection): 30% | Percent Survivors ([1]; pretreatment 6.25 mg/kg i.p., day 13 post infection): 30% | Percent Survivors ([1]; pretreatment 6.25 mg/kg i.p., day 14 post infection): 30% | Average Survival Time ([1]; pretreatment 6.25 mg/kg i.p.): 7.9* Days | Percent Survivors ([1]; pretreatment 12.5 mg/kg i.p., day 1 post infection): 100% | Percent Survivors ([1]; pretreatment 12.5 mg/kg i.p., day 2 post infection): 100% | Percent Survivors ([1]; pretreatment 12.5 mg/kg i.p., day 3 post infection): 100% | Percent Survivors ([1]; pretreatment 12.5 mg/kg i.p., day 4 post infection): 80% | Percent Survivors ([1]; pretreatment 12.5 mg/kg i.p., day 5 post infection): 80% | Percent Survivors ([1]; pretreatment 12.5 mg/kg i.p., day 6 post infection): 70% | Percent Survivors ([1]; pretreatment 12.5 mg/kg i.p., day 7 post infection): 70% | Percent Survivors ([1]; pretreatment 12.5 mg/kg i.p., day 8 post infection): 70% | Percent Survivors ([1]; pretreatment 12.5 mg/kg i.p., day 9 post infection): 70% | Percent Survivors ([1]; pretreatment 12.5 mg/kg i.p., day 10 post infection): 70% | Percent Survivors ([1]; pretreatment 12.5 mg/kg i.p., day 11 post infection): 70% | Percent Survivors ([1]; pretreatment 12.5 mg/kg i.p., day 12 post infection): 70% | Percent Survivors ([1]; pretreatment 12.5 mg/kg i.p., day 13 post infection): 70% | Percent Survivors ([1]; pretreatment 12.5 mg/kg i.p., day 14 post infection): 70% | Percent Survivors ([1]; pretreatment 12.5 mg/kg i.p., day 15 post infection): 70% | Average Survival Time ([1]; pretreatment 12.5 mg/kg i.p.): 11.9* Days | Percent Survivors ([1]; pretreatment 25 mg/kg i.p., day 1 post infection): 100% | Percent Survivors ([1]; pretreatment 25 mg/kg i.p., day 2 post infection): 100% | Percent Survivors ([1]; pretreatment 25 mg/kg i.p., day 3 post infection): 90% | Percent Survivors ([1]; pretreatment 25 mg/kg i.p., day 4 post infection): 70% | Percent Survivors ([1]; pretreatment 25 mg/kg i.p., day 5 post infection): 40% | Percent Survivors ([1]; pretreatment 25 mg/kg i.p., day 6 post infection): 40% | Percent Survivors ([1]; pretreatment 25 mg/kg i.p., day 7 post infection): 40% | Percent Survivors ([1]; pretreatment 25 mg/kg i.p., day 8 post infection): 40% | Percent Survivors ([1]; pretreatment 25 mg/kg i.p., day 9 post infection): 40% | Percent Survivors ([1]; pretreatment 25 mg/kg i.p., day 10 post infection): 40% | Percent Survivors ([1]; pretreatment 25 mg/kg i.p., day 11 post infection): 40% | Percent Survivors ([1]; pretreatment 25 mg/kg i.p., day 12 post infection): 40% | Percent Survivors ([1]; pretreatment 25 mg/kg i.p., day 13 post infection): 40% | Percent Survivors ([1]; pretreatment 25 mg/kg i.p., day 14 post infection): 40% | Percent Survivors ([1]; pretreatment 25 mg/kg i.p., day 15 post infection): 40% | Average Survival Time ([1]; pretreatment 25 mg/kg i.p.): 8.6* Days | Percent Survivors ([1]; pretreatment 50 mg/kg i.p., day 1 post infection): 100% | Percent Survivors ([1]; pretreatment 50 mg/kg i.p., day 2 post infection): 100% | Percent Survivors ([1]; pretreatment 50 mg/kg i.p., day 3 post infection): 80% | Percent Survivors ([1]; pretreatment 50 mg/kg i.p., day 4 post infection): 70% | Percent Survivors ([1]; pretreatment 50 mg/kg i.p., day 5 post infection): 40% | Percent Survivors ([1]; pretreatment 50 mg/kg i.p., day 6 post infection): 30% | Percent Survivors ([1]; pretreatment 50 mg/kg i.p., day 7 post infection): 30% | Percent Survivors ([1]; pretreatment 50 mg/kg i.p., day 8 post infection): 30% | Percent Survivors ([1]; pretreatment 50 mg/kg i.p., day 9 post infection): 30% | Percent Survivors ([1]; pretreatment 50 mg/kg i.p., day 10 post infection): 30% | Percent Survivors ([1]; pretreatment 50 mg/kg i.p., day 11 post infection): 30% | Percent Survivors ([1]; pretreatment 50 mg/kg i.p., day 12 post infection): 30% | Percent Survivors ([1]; pretreatment 50 mg/kg i.p., day 13 post infection): 30% | Percent Survivors ([1]; pretreatment 50 mg/kg i.p., day 14 post infection): 30% | Percent Survivors ([1]; pretreatment 50 mg/kg i.p., day 15 post infection): 30% | Average Survival Time ([1]; pretreatment 50 mg/kg i.p.): 7.6* Days | Percent Survivors ([1]; pretreatment 100 mg/kg i.p., day 1 post infection): 100% | Percent Survivors ([1]; pretreatment 100 mg/kg i.p., day 2 post infection): 100% | Percent Survivors ([1]; pretreatment 100 mg/kg i.p., day 3 post infection): 80% | Percent Survivors ([1]; pretreatment 100 mg/kg i.p., day 4 post infection): 50% | Percent Survivors ([1]; pretreatment 100 mg/kg i.p., day 5 post infection): 50% | Percent Survivors ([1]; pretreatment 100 mg/kg i.p., day 6 post infection): 50% | Percent Survivors ([1]; pretreatment 100 mg/kg i.p., day 7 post infection): 50% | Percent Survivors ([1]; pretreatment 100 mg/kg i.p., day 8 post infection): 50% | Percent Survivors ([1]; pretreatment 100 mg/kg i.p., day 9 post infection): 50% | Percent Survivors ([1]; pretreatment 100 mg/kg i.p., day 10 post infection): 50% | Percent Survivors ([1]; pretreatment 100 mg/kg i.p., day 11 post infection): 50% | Percent Survivors ([1]; pretreatment 100 mg/kg i.p., day 12 post infection): 50% | Percent Survivors ([1]; pretreatment 100 mg/kg i.p., day 13 post infection): 50% | Percent Survivors ([1]; pretreatment 100 mg/kg i.p., day 14 post infection): 50% | Percent Survivors ([1]; pretreatment 100 mg/kg i.p., day 15 post infection): 50% | Average Survival Time ([1]; pretreatment 100 mg/kg i.p.): 9.3* Days | protecting mice against a lethal Listeria monocytogenes EGD infection ([1]; pretreatment 5, 3, and 1 days before intravenous infection, intraperitoneally): highly effective | Percent Macrophage Cytotoxicity at Day (peritoneal macrophages; dose 10 mg/kg, Day 0): 0% | Percent Macrophage Cytotoxicity at Day (peritoneal macrophages; dose 10 mg/kg, Day 3): 8% | Percent Macrophage Cytotoxicity at Day (peritoneal macrophages; dose 10 mg/kg, Day 5): 20% | Percent Macrophage Cytotoxicity at Day (peritoneal macrophages; dose 10 mg/kg, Day 10): 0% | Percent Macrophage Cytotoxicity at Day (peritoneal macrophages; dose 100 mg/kg, Day 0): 0% | Percent Macrophage Cytotoxicity at Day (peritoneal macrophages; dose 100 mg/kg, Day 3): 43% | Percent Macrophage Cytotoxicity at Day (peritoneal macrophages; dose 100 mg/kg, Day 5): 25% | Percent Macrophage Cytotoxicity at Day (peritoneal macrophages; dose 100 mg/kg, Day 10): 0%
